From article PMC12749748, “Chemically-induced degradation of the endoplasmic-reticulum stress sensor IRE1 by a VHL-recruiting chimera” (Nature Communications, 2025)

Legend:
Assay type in all cases: cell-based
OPM2 cells = assay: Incucyte cell confluency, OPM2 cells; settings: OPM2 shIRE1 cells, titration
Procedure: (§1) For non-adherent AMO1, KMS27, and OPM2 cells, cells were plated at 5000 cells/well in ultra-low attachment (ULA) 96-well plates (Costar, #7007) and centrifuged at 600 × g for 5 min for spheroid formation. For adherent U2OS and Colo201 cells, 2000 cells/well were seeded in a clear flat-bottom 96-well plate (Costar, #3595). Treatments were added at the time of cell seeding, and cells were cultured in complete RPMI media to a final volume of 200 µL/well. Cultures were maintained at 37 °C throughout the duration of the experiment. Cell confluency was tracked using the Incucyte live-cell imaging system (Sartorius S3). Picture frames were captured every 4 h with a 4× objective, and cell confluency (%) from the total well area as a function of time was calculated using the Incucyte software (version 2023 A Rev2).

IRE1 H579A:VHL = biological target: T1, IRE1 H579A:VHL (Homo sapiens, UniProt O75460+P40337, H579A); assay: NanoBRET IRE1:VHL interaction, IRE1 H579A, HEK293T cells
T1 construct: N2731; host or cells: HEK293T
Procedure: 8 × 10^5 293T cells per well were seeded in 6-well plates (Costar, #3516) and incubated at 37 °C, 5% CO2 for 6 h. A mixture of 0.2 µg ERN1 (IRE1)-NanoLuc Fusion Vector (Promega, NV1321), 2 µg HaloTag-VHL Fusion Vector (Promega, N2731), 6 µl FuGENE HD Transfection Reagent (Promega, E2311), and 100 µL Opti-MEM I reduced serum medium (Gibco, #31985062) per well was incubated at room temperature for 20 min before adding to cells. For expression of IRE1 mutants, site-directed mutagenesis was performed using the ERN1-NanoLuc Fusion Vector as the DNA template, and the transfection mixture was prepared in the same way as WT IRE1. After 18 h, cells from 6-well plates were trypsinized, resuspended in Opti-MEM I reduced serum medium, and reseeded into 96-well plates (Costar, #3917), with or without the addition of HaloTag NanoBRET 618 Ligand (Promega, G9801). After 18 h of incubation, a titration of G6374 (dilutions made in Opti-MEM I reduced serum medium) was added to the cells. After 2 h of G6374 treatment, NanoBRET Nano-Glo Substrate (Promega, N1571) was added to cells. The 96-well plates were imaged by GloMax Discover Microplate Reader (Promega, GM3000) with the default “BRET: NanoBRET 618” protocol (Donor: 450 BP; Acceptor: 600 LP; Integration: 0.3 s). Data analysis was performed according to the user manual.

IRE1:VHL = IRE1:VHL (Homo sapiens, UniProt O75460+P40337); assay: NanoBRET IRE1:VHL interaction, WT IRE1, HEK293T cells; design: N2731 (HaloTag-VHL); host or cells: HEK293T
Procedure: 8 × 10^5 293T cells per well were seeded in 6-well plates (Costar, #3516) and incubated at 37 °C, 5% CO2 for 6 h. A mixture of 0.2 µg ERN1 (IRE1)-NanoLuc Fusion Vector (Promega, NV1321), 2 µg HaloTag-VHL Fusion Vector (Promega, N2731), 6 µl FuGENE HD Transfection Reagent (Promega, E2311), and 100 µL Opti-MEM I reduced serum medium (Gibco, #31985062) per well was incubated at room temperature for 20 min before adding to cells. For expression of IRE1 mutants, site-directed mutagenesis was performed using the ERN1-NanoLuc Fusion Vector as the DNA template, and the transfection mixture was prepared in the same way as WT IRE1. After 18 h, cells from 6-well plates were trypsinized, resuspended in Opti-MEM I reduced serum medium, and reseeded into 96-well plates (Costar, #3917), with or without the addition of HaloTag NanoBRET 618 Ligand (Promega, G9801). […] After 2 h of G6374 treatment, NanoBRET Nano-Glo Substrate (Promega, N1571) was added to cells. The 96-well plates were imaged by GloMax Discover Microplate Reader (Promega, GM3000) with the default “BRET: NanoBRET 618” protocol (Donor: 450 BP; Acceptor: 600 LP; Integration: 0.3 s). Data analysis was performed according to the user manual.

KMS27 cells = assay: Incucyte cell confluency, KMS27 cells; settings: KMS27 shIRE1 cells, titration
Procedure: as §1

Sequence of IRE1:VHL (O75460 19-977): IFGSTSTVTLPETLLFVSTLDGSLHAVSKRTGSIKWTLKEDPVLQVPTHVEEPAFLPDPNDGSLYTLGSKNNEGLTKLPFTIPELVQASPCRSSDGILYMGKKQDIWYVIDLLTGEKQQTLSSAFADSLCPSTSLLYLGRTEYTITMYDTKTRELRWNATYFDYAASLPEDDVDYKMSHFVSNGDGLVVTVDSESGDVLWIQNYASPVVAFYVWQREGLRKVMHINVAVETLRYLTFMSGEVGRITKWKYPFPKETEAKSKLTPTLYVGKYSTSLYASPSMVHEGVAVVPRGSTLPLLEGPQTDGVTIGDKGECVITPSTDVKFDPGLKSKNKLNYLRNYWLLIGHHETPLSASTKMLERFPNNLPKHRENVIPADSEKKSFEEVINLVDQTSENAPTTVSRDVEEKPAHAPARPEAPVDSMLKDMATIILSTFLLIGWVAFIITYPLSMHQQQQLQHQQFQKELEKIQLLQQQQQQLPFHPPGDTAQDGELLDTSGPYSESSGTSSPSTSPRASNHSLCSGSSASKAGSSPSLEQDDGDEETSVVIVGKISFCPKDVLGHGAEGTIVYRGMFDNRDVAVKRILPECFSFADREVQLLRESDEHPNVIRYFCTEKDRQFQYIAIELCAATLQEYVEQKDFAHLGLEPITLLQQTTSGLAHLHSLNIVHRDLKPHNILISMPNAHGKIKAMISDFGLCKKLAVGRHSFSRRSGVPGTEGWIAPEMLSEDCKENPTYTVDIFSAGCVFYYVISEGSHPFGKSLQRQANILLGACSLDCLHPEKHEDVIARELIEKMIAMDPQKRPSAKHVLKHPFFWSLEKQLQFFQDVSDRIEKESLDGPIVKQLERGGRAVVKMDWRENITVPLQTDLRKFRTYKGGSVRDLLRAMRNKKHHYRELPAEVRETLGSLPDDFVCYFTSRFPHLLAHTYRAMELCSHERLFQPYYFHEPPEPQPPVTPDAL
Sequence of IRE1:VHL (P40337 whole entry, the tested form may be a part): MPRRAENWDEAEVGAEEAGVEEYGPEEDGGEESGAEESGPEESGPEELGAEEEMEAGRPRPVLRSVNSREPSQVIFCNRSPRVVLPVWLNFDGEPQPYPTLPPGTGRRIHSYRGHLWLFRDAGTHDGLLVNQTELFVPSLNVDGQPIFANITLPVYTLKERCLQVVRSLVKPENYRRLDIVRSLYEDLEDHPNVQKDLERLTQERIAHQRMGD
Sequence of IRE1:VHL (Q15369 whole entry partner, the tested form may be a part): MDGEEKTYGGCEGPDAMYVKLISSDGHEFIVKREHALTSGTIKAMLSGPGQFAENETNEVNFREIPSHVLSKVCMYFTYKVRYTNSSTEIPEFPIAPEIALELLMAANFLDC
Sequence of IRE1:VHL (Q15370 whole entry partner, the tested form may be a part): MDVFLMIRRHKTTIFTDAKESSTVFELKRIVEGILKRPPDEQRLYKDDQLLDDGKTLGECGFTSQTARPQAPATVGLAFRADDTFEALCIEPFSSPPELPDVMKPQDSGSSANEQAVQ
Sequence of IRE1:VHL (Q13617 whole entry partner, the tested form may be a part): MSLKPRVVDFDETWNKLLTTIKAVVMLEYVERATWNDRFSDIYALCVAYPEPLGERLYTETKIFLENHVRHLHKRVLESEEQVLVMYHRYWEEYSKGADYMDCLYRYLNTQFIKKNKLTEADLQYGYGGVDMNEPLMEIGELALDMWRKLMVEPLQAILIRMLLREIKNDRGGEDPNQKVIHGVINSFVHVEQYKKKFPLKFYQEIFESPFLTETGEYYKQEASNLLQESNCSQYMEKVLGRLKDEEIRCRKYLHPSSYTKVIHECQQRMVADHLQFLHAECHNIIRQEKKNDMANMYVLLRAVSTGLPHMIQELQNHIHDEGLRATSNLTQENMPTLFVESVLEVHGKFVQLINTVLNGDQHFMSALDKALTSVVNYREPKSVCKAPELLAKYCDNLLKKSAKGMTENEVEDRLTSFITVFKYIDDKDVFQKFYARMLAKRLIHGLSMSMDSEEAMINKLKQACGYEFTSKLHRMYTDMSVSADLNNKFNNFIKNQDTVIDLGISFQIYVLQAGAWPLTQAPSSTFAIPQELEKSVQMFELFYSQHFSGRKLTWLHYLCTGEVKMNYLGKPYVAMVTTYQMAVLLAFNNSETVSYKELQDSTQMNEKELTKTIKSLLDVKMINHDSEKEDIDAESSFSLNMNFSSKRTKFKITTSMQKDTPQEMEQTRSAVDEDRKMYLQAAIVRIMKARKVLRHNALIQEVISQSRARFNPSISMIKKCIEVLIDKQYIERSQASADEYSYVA
Sequence of IRE1:VHL (P62877 whole entry partner, the tested form may be a part): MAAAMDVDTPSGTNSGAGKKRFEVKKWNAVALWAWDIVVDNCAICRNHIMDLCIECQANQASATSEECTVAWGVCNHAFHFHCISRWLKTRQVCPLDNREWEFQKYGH
T1 sequence (O75460 19-977 H579A): as the sequence (O75460 19-977) above, with H561A counted along it
T1 sequence (Q13617 whole entry, further chain): as the sequence (Q13617 whole entry partner, the tested form may be a part) above
T1 sequence (Q15370 whole entry, further chain): as the sequence (Q15370 whole entry partner, the tested form may be a part) above
T1 sequence (P62877 whole entry, further chain): as the sequence (P62877 whole entry partner, the tested form may be a part) above
T1 sequence (P40337 whole entry): as the sequence (P40337 whole entry, the tested form may be a part) above
T1 sequence (Q15369 whole entry, further chain): as the sequence (Q15369 whole entry partner, the tested form may be a part) above

SMILES: Cc1ncsc1-c1ccc(CNC(=O)[C@@H]2C[C@@H](O)CN2C(=O)[C@@H](NC(=O)CCCCN2CCN([C@H]3CC[C@H](Nc4ncc5ccc(=O)n(C(C)C)c5n4)CC3)CC2)C(C)(C)C)cc1 [G6374]
- growth inhibition (cell confluency) (OPM2 cells): concentration-dependent growth inhibition
- EC50 (IRE1 H579A:VHL): 450 ± 60 nM
- EC50 (IRE1:VHL): 110 ± 30 nM
- EC50 of IRE1:VHL interaction (NanoBRET ratio) (IRE1:VHL; WT IRE1, HEK293T, estimated): 110 nM
- growth inhibition (cell confluency) (KMS27 cells): concentration-dependent growth inhibition
